In patent US20190119642A1, “METHODS AND COMPOSITIONS RELATING TO HEMATOPOIETIC STEM CELL EXPANSION” (CHILDREN'S MEDICAL CENTER CORPORATION, priority 2016, published 2019):

Tested on: CD34+ enriched cord blood cells
Test: Ex vivo expansion of CD34+ enriched cord blood cells, 12 days in culture with small molecules, flow cytometry
Conditions: for percentage and total number of Lin-CD34+ and Lin- cells: CD34+ cord blood cells cultured in vitro 12 days, FIGS. 21-23
Experimental: CD34+ enriched cord blood cells were obtained from AllCells. Ten thousand cells were cultured in StemSpan SFEMII containing recombinant human SCF, TPO, IL-3 and FLT3L (all at 100 ng/ml). Cells were cultured with cytokine containing media with the vehicle control (DMSO) or the indicated small molecules. Media was changed every three days. On day twelve, cells were harvested, counted, and analyzed by flow cytometry.
Plots show samples previously gated through live (PI-) and singlet gates. Gating strategy for immunophenotypic hematopoietic stem cells (HSCs) defined as Lin−CD34+CD45RA−CD90+ and Lin−CD34+CD45RA−CD90+CD49f+EPCR+ HSCs is shown. Percentages indicate the frequency of the parent (previous) gate.
Plots show samples previously gated through live (PI-) and singlet gates. Gating strategy for immunophenotypic hematopoietic stem cells (HSCs) as Lin−CD34+CD45RA−CD90+ and Lin−CD34+CD45RA−CD90+CD49f+EPCR+ are shown. Percentages indicate the frequency of cells in the parent population.
Depicted is the total number of live cells after 12 days of culturing 10,000 CD34+ enriched cord blood cells in the indicated conditions.
CD34+ cord blood cells were cultured in vitro in the presence of different combinations of compounds as described herein.

Row | SMILES | percentage and total number of Lin-CD34+ and Lin- cells | percentage and total number of Lin-CD45RA-CD90+ HSCs (CD34+ cord blood cells, 12 days culture, FIG. 24, 25) | percentage of Lin-CD45RA-CD90+CD49f+EPCR+ HSCs (CD34+ cord blood cells, 12 days culture, FIG. 26, 27)
1 | Nc1cccc2c1C(=O)N(C1CCC(=O)NC1=O)C2=O (centres unmarked) [POM, pomalidomide] | increased | increased | increased
2 | CC(C)n1cnc2c(NCCc3ccc(O)cc3)nc(-c3csc4ccccc34)nc21 [SR1, StemRegenin 1] | increased |  | 
3 | C[S+]([O-])c1ccc(-c2nc(-c3ccc(F)cc3)c(-c3ccncc3)[nH]2)cc1 (centres unmarked) [A, A83-01] | increased |  | 
